For one data set, the system named is progranulin expression. In words: In situ hybridization of progranulin expression in cervical spinal cord of BSSG fed mice. It counts as in vivo, mouse. On the procedure: Adult male CD-1 mice were fed a diet of either normal chow or chow containing […] per day of synthetic BSSG. Following 10 weeks of feeding with BSSG-containing chow and a further month with normal lab chow, mice were killed and ISH using progranulin specific antisense riboprobes was performed on frozen sections of cervical spinal cord cut in trans-section. High levels of progranulin expression were detected in the anterior horn cells of the control mouse as shown by the section in FIG. 9A. […] A negative control section is shown in FIG. 9C, incubated with a sense probe.
Adult male CD-1 mice were fed a diet of chow containing 10, 100, or 1000 μg per day of synthetic BSSG. Following 10 weeks of feeding with BSSG-containing chow and a further month with normal lab chow, mice were killed and ISH using progranulin specific riboprobes was performed on frozen sections of cervical spinal cord cut in trans-section. […] Additionally, there is a more pronounced loss of progranulin expression per cell as BSSG exposure increases.

The subject of data set [1] is NSC-34 cells. As to conditions: literature (Tabata et al.); cited from earlier work.
Data set [2] concerns motor neurons in lumbar cord. In words: Motor neuron quantification (Nissl, ChAT, CTIP2, caspase-3) after 10 weeks BSSG. It counts as in vivo, mouse. As to conditions: varying doses of synthetic BSSG for 10 weeks, aged 1 or 5 months on normal chow. The text has this:
Six month old male CD-1 mice were fed varying doses of synthetic BSSG for 10 weeks, then allowed to age for 1 month with a diet of normal chow prior to sacrifice (see FIG. 3, panels A-C). Motor neurons were quantified in lumbar cord, by Nissl staining and choline acetyltransferase (ChAT) immunohistochemistry (IHC), as shown in FIG. 3A. Motor neurons were quantified in motor cortex where neurons were detected by IHC against CTIP2 (highly expressed in corticospinal motor neurons), as shown in FIG. 3C. Motor neurons in the lumbar spinal cord of animals permitted to age for 5 months following the cessation of BSSG were quantified after Nissl staining, as shown in FIG. 3D (* P<0.01, ANOVA).
Lumbar spinal cord sections were stained with cresyl violet and ventral horn motor neurons were counted under a 40× objective lens. All motor neurons in the field of view were included in the results. Multiple sections (N=6) from each mouse were used. Counts were conducted on spinal cord sections that were at least 150 μm apart (in the rostral-caudal plane) ensuring that no motor neuron was counted twice. In addition, counts included all apparent motor neurons including motor neurons that may have appeared atrophic or damaged.
Active caspase-3 (Promega, Madison, Wis.) labeling was performed as follows. […] Sections were visualized using fluorescence microscopy. […]

Data set [3] concerns male CD-1 mice. In words: Open field motor activity (grid crossings) following synthetic BSSG exposure. It counts as in vivo, mouse. The following applies: same mice as Example 4; week 28 vs controls, p<0.05. As for the experimental part: The same mice exposed to BSSG in Example 4 were used to analyze open field motor activity. *=p<0.05 (Student T-test).
For the open field motor activity analysis, mice were placed in a round open field (2 m diameter) for 5 minutes and movements were recorded using a video camera to measure emotionality and exploration (spontaneous motor activity) (Karl et al., 2003). Videos were replayed on a TV and a circular grid was overlaid on the TV screen. Grid crossings were recorded.

A further data set deals with spinal motor neurons. In words: Spinal motor neuron counts and ChAT in BSSG challenged mice treated with PGRN lentivirus. It counts as in vivo, mouse.
Data set [4] has as its system male CD-1 mice. In words: Leg extension reflex following synthetic BSSG exposure. It counts as in vivo, mouse. As to conditions: 100 mg/day synthetic BSSG for 15 weeks, then normal chow; weekly, week 0-32, vs control p<0.0001. On the procedure:
Three month old male CD-1 mice were fed 100 mg/day of synthetic BSSG for 15 weeks, then permitted to age with a diet of normal lab chow. Leg extension was measured weekly from the initiation of the experiment. Testing was performed as described in Wilson et al., 2004 and Wilson et al., 2005.
The leg extension reflex test was used as a measure of motor neuron dysfunction (Barneoud and Curet, 1999). This test was altered to discriminate more subtle behaviors, creating a scale from 0 to 4. […] This scale allows the measure of progression in a continuous manner over time. A score of 0-4 is assigned based on the response shown by the mouse as follows:
4: Complete extension of both legs (normal).
3: Two legs extended with some tremors and/or punching in a leg.
2: One leg extended, 1 retracted, or tremors in both legs.
1: One leg retracted, tremors in other leg.

For data set [5], the system named is caudal primary motor neurons of zebrafish embryos. In words: Zebrafish ventral primary motor axon/nerve growth (znp1 immunostaining). It counts as in vivo. An excerpt: During the first day of zebrafish development, neuromuscular connections are restricted to the three primary motoneurons (CaP, MiP and RoP) per spinal cord hemisegment where they innervate three myotome areas that ultimately develop into body wall muscle. During the first the 24 hpf CaP axons project to establish the common pathway. This is the developmental period encompassed in FIGS. 27 and 28.
Development of ventral primary neurons were examined in whole mount embryos at 26-28 hpf and visualized by immunostaining with znp1 monoclonal antibody that labels primary motor neurons.
There is reduced incidence (P<0.001) of truncated neurons (FIG. 27, Panel D, white arrows) together with increased incidence (P<0.001) of early and late branching (FIG. 27, Panel E, white arrowheads) as shown in Table 2. Data sets were accumulated from 50 embryos (WT, progranulin MO, progranulin MO plus mRNA).
Fish husbandry: Wild type zebrafish were purchased from Aquatica Tropicals (Florida) and maintained on a 14 h/10 h light/dark cycle at 28.5° C. in a laboratory aquarium (Allentown Caging Equipment Co. Inc., Allentown, N.J.). Fish were fed twice daily. In the late afternoon of the day before eggs are required, fish were transferred to a net positioned towards the top of a holding tank and covered. In the morning, after the light cycle begins and spawning has stopped, the eggs that have fallen through the net were collected from the bottom of the tank. Embryos to be used for developmental studies were collected and staged by hours post fertilization (hpf). […]
Microinjection of Pgrn mRNA: For Pgrn mRNA over-expression and rescue experiments the vector was generated as follows: The full-length progranulin-a sequence was purchased from RZPD (Berlin, Germany) as clone UCDMp574E2318Q2 and subcloned into pcDNA3.1-V5/His vector (Invitrogen, Carlsbad, Calif.) using a forward primer that overlapped with the starter AUG a reverse primer that read through the termination codon. […]

In data set [6] the test system is NSC-34 cells. In words: NSC-34 proliferation/survival with granulin epithelin modules (CyQUANT NF). It counts as cell-based. The following applies: 50 or 100 ng/ml, 13 days, RPMI without serum. On the procedure: NSC 34 cells (5000 cell/well) were plated in 96 well plates using 100 ul of DMEM/10% FBS. The following day, the medium was removed and replaced with 100 ul of RPMI (without serum) containing: 0, 50 or 100 ng/ml of grn D or grn F. Cultures were incubated for 13 days following which cell proliferation/survival was determined using the CyQUANT® NF (kit #C35006) assay.
The CyQUANT® NF assay is based on measurement of cellular DNA content via fluorescent dye binding. The extent of proliferation/survival is determined by comparing fluorescence intensity for NSC-34 cells treated with GEMs (50 and 100 ng) relative to untreated controls (Ong).
As per the manufacturers instructions, the protocol included aspiration of growth medium, replacement with 100 ul of dye binding solution per well, incubation for 30 minutes following which the fluorescence intensity of each sample was measured using a fluorescence microplate reader with excitation at ˜485 nm and emission detection at ˜530 nm (FIG. 22). The immortalized motor neuron cell line (NSC-34) responded to incubation with grn F and grn D with either proliferation/survival (grn F) or no effect (grn D) similar to the response of extra neuronal cells incubated in the presence of these GEM's (described in: Tolkatchev D. et al., Protein Sci. 17:711-724, 2008).

The mark [7] stands for this setting: Table 2, average number of motor axon/nerve defects per affected side, n=50, 10 ng PgrnA MO, 100 pg mRNA, 26-28 hpf.

Entries after “also recorded” stand apart in the source; their conditions may differ.

`CC[C@H](CC[C@@H](C)[C@H]1CC[C@H]2[C@@H]3CC=C4C[C@@H](O[C@@H]5O[C@H](CO)[C@@H](O)[C@H](O)[C@H]5O)CC[C@]4(C)[C@H]3CC[C@]12C)C(C)C` [BSSG, β-sitosterol β-D-glucoside]: the “neuropathology and loss of progranulin expressing cells in cervical spinal cord” value with progranulin expression (10, 100 or 1000 μg per day BSSG, 10 weeks plus 1 month normal chow) is recorded as “more pronounced neuropathology”. Besides, the “progranulin expression in anterior horn cells of cervical spinal cord (ISH)” value in the data set on progranulin expression (1000 μs per day synthetic BSSG 10 weeks plus 1 month normal chow) was “decreased in intensity and was observed in fewer cells of the anterior horn”. Further, the “cytotoxicity in NSC-34 cell line” value in the data set on NSC-34 cells [1] was “cause cytotoxicity”. Besides, the “motor neurons in lumbar spinal cord” value in data set [2] is reported as “Progressive loss of motor neurons; also recorded: dose dependent loss of motor neuron health”. In addition, the “open field motor activity (grid crossing)” value in the data set with male CD-1 mice [3] is recorded as “significantly decreased movement”. The “numbers of ChAT positive motor neurons” value with spinal motor neurons (control (saline treated) BSSG exposed mice) is on record as “appeared to be reduced”. Also, in the data set on spinal motor neurons (saline treated BSSG exposed mice relative to all other treatment groups), the “choline acetyl transferase (ChAT) activity in anterior horn cells” value is on record as “decreased activity”. Besides, the “leg extension reflex (score 0-4)” value in the data set on male CD-1 mice [4] is “decline in leg extension reflex”.

As for “PGRN-MO2: morpholino to 5′UTR of zebrafish pgrn-a, 5′-GAGCAGGTGGATTTGTGAACAGCGG-3′ (all phosphorodiamidate morpholino (PMO))”, in data set [5] (setting [7]), the Branching is reported as 1.0 ± 0.19*c and the Truncation is given as 3.02 ± 0.31***a. In addition, in data set [5] (whole mount embryos 26-28 hpf, znp1), the “primary motor neuron phenotype” value is given as “range of morphant phenotypes”.

B1: grn D: granulin epithelin module, SEQ ID NO: 10, His-tagged (protein)
chain: AMDIGCDQHTSCPVGQTCCPSLGGSWACCQLPHAVCCEDRQHCCPAGYTCNVKARSCEKLAAALEHHHHHH
modifications: His tag
For B1, the “cell proliferation/survival (CyQUANT NF fluorescence)” value in the data set on NSC-34 cells [6] is recorded as “no effect”.

Values taken from patent US20220265770A1, “TREATING NEURODEGENERATIVE DISEASES WITH PROGRANULIN” (NEURODYN, INC., priority 2008, published 2022).
